In ChEMBL document CHEMBL5728699, “Macrocyclic compounds for treatment of medical disorders” (2021) one finds IC50 data, which are given here for 10 compounds.

The target in the assay is Complement factor D (Homo sapiens, UniProt P00746). Briefly: Human Factor D Assay: Human Factor D (purified from human serum, Complement Technology, Inc.) at 80 nM final concentration is incubated with test compound at various concentrations for 5 min at room temperature in 50 mM Tris, 1M NaCl, pH 7.5. A synthetic substrate Z-L-Lys-SBzl and DTNB (Ellman's reagent) are added to final concentrations of 100 µM each. Absorbance at 405 nm (A405) is recorded at 30 second intervals for 30 minutes using a microplate spectrophotometer. IC50 values are calculated by nonlinear regression of Complement Factor D reaction rates as a function of test compound concentration.
Sequence of Complement factor D (P00746 whole entry): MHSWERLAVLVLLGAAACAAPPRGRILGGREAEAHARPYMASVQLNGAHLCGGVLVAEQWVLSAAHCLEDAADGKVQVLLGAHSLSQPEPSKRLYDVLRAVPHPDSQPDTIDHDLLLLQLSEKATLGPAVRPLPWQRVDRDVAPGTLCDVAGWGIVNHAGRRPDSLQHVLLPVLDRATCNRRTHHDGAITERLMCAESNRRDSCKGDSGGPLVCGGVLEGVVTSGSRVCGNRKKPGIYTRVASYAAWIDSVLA

As usually defined, the IC50 is the concentration at which inhibition is half-maximal. In the case of `CC(=O)c1nn2c3c(cc(-c4cnc(C)nc4)cc13)C/C=C\CCCC(=O)NC[C@@]13C[C@@H](C(=O)Nc4nc(C(F)(F)F)ccc4C)N(C(=O)C2)[C@@H]1C3`, the IC50 is < 1000 nM. On to `CC(=O)c1nn(CC(=O)N2[C@H]3C[C@]4(C[C@@H]24)CN(C)CCCC/C=C\Cc2ccc(Br)nc2NC3=O)c2c(CF)cc(-c3cnc(C)nc3)cc12`, for which the IC50 was < 1000 nM. For `CC(=O)c1nn2c3c(cc(-c4cnc(C)nc4)cc13)C/C=C\CCCC(=O)NC[C@@]13C[C@@H](C(=O)Nc4nc(Br)ccc4C)N(C(=O)C2)[C@@H]1C3`, the IC50 is < 1000 nM. `CC(=O)c1nn(CC(=O)N2[C@H]3C[C@]4(C[C@@H]24)CN(C)CC(O)C(O)COCc2ccc(Br)nc2NC3=O)c2cnc(-c3cnc(C)nc3)cc12` (stereo not given in full): the IC50 is < 1000 nM. For `CC(=O)c1nn(CC(=O)N2[C@H]3C[C@]4(C[C@@H]24)CN2CC(CCCOCc4ccc(Br)nc4NC3=O)C2)c2c(C)cc(-c3cnc(C)nc3)cc12`, the IC50 is < 1000 nM. As to `CC(=O)N[C@H]1C/C=C\COCc2ccc(Br)nc2NC(=O)[C@@H]2C[C@@]3(CNC1=O)C[C@H]3N2C(=O)Cn1nc(C(C)=O)c2cc(-c3cnc(C)nc3)ccc21`, the IC50 is < 1000 nM. `CC(=O)c1nn(CC(=O)N2[C@H]3C[C@@]4(/C=C\CCCCN(C)C(=O)Cc5ccc(Br)nc5NC3=O)C[C@@H]24)c2ccc(-c3cnc(C)nc3)cc12`: the IC50 is < 1000 nM. As to `CC(=O)c1nn2c3c(cc(-c4cnc(C)nc4)cc13)CC/C=C\CCCC(=O)NC[C@@]13C[C@@H](C(=O)Nc4nc(Br)ccc4C)N(C(=O)C2)[C@@H]1C3`, the IC50 was < 1000 nM. As for `CC(=O)c1nn2c3c(cc(-c4cnc(C)nc4)cc13)CCCCCC/C=C\c1cn(nn1)C[C@@]13C[C@@H](C(=O)Nc4nc(Br)ccc4C)N(C(=O)C2)[C@@H]1C3`, the IC50 was < 1000 nM.

As for `C=C1COCc2ccc(Br)nc2NC(=O)[C@@H]2C[C@]3(C[C@H]3N2C(=O)Cn2nc(C(C)=O)c3cc(-c4cnc(C)nc4)ncc32)Cn2cc1cn2`, the IC50 is < 1000 nM.
